These results are taken from the pKa sets of Baltruschat and Czodrowski (2020).

A word on the pKa: it is the pH at which an ionisable group is half protonated. Read a low pKa as a stronger acid or weaker base.

`CCCCN(C)C` showed a pKa of 10.2.

Consider `NCCC(F)(F)F`, for which the pKa is 8.7.

`FC1CCCNC1` (stereo not drawn) displayed a pKa of 9.3.

For the compound `CCN(C)C`, the pKa was 10.2.

`CN(C)CC(C)(C)CCc1ccc(C(C)(C)C)cc1` returned a pKa of 9.4.

The compound `NCC(F)F` showed a pKa of 7.3.

`CN(C)CCCC(C)(C)c1ccc(C(C)(C)C)cc1` had a pKa of 9.8.

`NCCCC(F)(F)F` had a pKa of 9.7.

`FC1(F)CCNCC1`: the pKa turned out to be 8.5.

Consider `FC1(Cc2ccccc2)CCN(CCCc2c[nH]c3ccc(-n4cnnc4)cc23)CC1`, for which the pKa came to 8.8.

`FC1(F)CCCNC1` returned a pKa of 7.4.

In the case of `FC(Cc1c[nH]c2ccc(-n3cnnc3)cc12)CN1CCC(Cc2ccccc2)CC1` (stereo not drawn), the pKa worked out at 8.7.

With `c1ccc(CC2CCN(CCCc3c[nH]c4ccc(-n5cnnc5)cc34)CC2)cc1`, the pKa amounted to 9.7.

For `FC(F)(Cc1c[nH]c2ccc(-n3cnnc3)cc12)CN1CCC(Cc2ccccc2)CC1`, the pKa amounted to 6.7.

With `CN1CCCCC1`, the pKa came to 10.1.

For the compound `CN(C)CC(F)(F)F`, the pKa amounted to 4.8.

With `CN(C)C`, the pKa came out at 9.8.

The compound `CN(C)C(C)(C)CCCc1ccc(C(C)(C)C)cc1` displayed a pKa of 10.4.

In the case of `NCCCF`, the pKa came out at 9.9.

Turning to `CCCCN`, the pKa came out at 10.7.

In turn, `CC(=O)N1CCNCC1` registered a pKa of 7.9.

In turn, `CN(C)CCCCc1ccc(C(C)(C)C)cc1` gave a pKa of 9.9.

Compound `FC1CCNCC1` had a pKa of 9.4.
